Test results as given in patent publication US20060281789A1, “Protein kinase inhibitors” (KYOWA HAKKO KOGYO CO., LTD, priority 2003, published 2006).
Counter-ions that a name gives are not always drawn.

How the values were obtained:
[1] = target: T1, human Flt-3 (Homo sapiens, UniProt P36888); assay: Inhibitory activity on Flt-3 (GST-fused kinase, time-resolved fluoroimmunoassay); type: biochemical; settings: tested compound 10 μmol/L, ATP 10 μmol/L, sixty minutes
T1 construct: fused to the N-terminus of the intracellular domain (583-953 amino acids) thereof; made in house; host or cells: insect cells (baculovirus)
T1 sequence (P36888 583-953): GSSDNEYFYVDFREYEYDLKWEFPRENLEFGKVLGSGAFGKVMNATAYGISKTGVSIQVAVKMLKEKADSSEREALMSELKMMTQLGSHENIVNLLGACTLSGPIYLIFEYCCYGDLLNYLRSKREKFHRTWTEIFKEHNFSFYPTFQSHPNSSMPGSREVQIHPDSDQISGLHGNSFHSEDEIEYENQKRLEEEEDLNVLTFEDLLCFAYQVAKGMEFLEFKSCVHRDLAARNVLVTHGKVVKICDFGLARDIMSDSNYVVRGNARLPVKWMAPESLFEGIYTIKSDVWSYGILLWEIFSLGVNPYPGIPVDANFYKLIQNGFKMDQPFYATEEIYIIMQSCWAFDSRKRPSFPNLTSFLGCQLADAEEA
Experimental: Flt-3 inhibitory activities were determined in the following manner.
Flt-3 was prepared by allowing baculovirus to infect insect cells, which baculovirus expresses a protein comprising human Flt-3 with […]. […] Separately was prepared a solution containing, at final concentrations, GST-fused Flt-3 (100 μg/L), Tris-Cl (pH 7.5) (20 mmol/L), β-glycerophosphate (5 mmol/L), dithiothreitol (DTT) (1 mmol/L), Na3VO4 (0.1 mmol/L), MgCl2 (10 mmol/L), MnCl2 (10 mmol/L), ATP (10 μmol/L), bovine serum albumin (BSA) (0.1%), DMSO (0.1%), and a tested compound (10 μmol/L). The solution (each 60 μL) was placed into the wells of the plate for the determination of kinase reaction, followed by enzymatic reaction at room temperature for sixty minutes. After reacting, the reaction was stopped by the addition of 50 μL of a 25 mmol/L aqueous solution of ethylenediaminetetraacetic acid. […] The relative activity (%) of a well in which the enzyme and tested compound were added was determined by calculation with the value in a well to which the tested compound was not added being 100% and the value in a well to which the enzyme and the tested compound were not added being 0%. The Flt-3 inhibitory activity (%) of the tested compound was determined by subtracting the relative activity (%) from 100.

[2] = tested on: MV-4-11; assay: Cytostatic activity on human acute myeloid leukemia cell line MV-4-11 (WST-1); type: cell-based; settings: MV4-11, 3.16 μmol/L, 72 hours, read-out: MV-4-11 (%) cytostatic rate
Experimental: (§1) The cytostatic rates of a test compound on human acute myeloid leukemia cell lines MV-4-11 and ML-1, and human chronic myeloid leukemia cell line K562 were determined in the following manner.
(§2) Each cell was cultured using Roswell Park Memorial Institute's Medium (RPMI) 1640 (Gibco, Catalog No. 11875-093) containing 10% fetal bovine serum (Gibco, Catalogue No. 10437-028) and penicillin/streptomycin (1:1) (Gibco, Catalogue No. 15140-122). Each 80 μL of the MV-4-11 cell having a concentration of 7.5×10^4 cells/mL (or the ML-1 cell or K562 cell having a concentration of 2.5×10^4 cells/mL) was inoculated to wells of a TC MICROWELL 96U plate (Nalge Nunc International, Catalogue No. 163320) and was cultured in a 5% carbon dioxide gas incubator at 37° C. for 4 hours. As a blank, only RPMI medium (80 μL) was added to a well. Each 20 μL of a solution of the test compound in dimethyl sulfoxide (DMSO) which was prepared to make the final concentration to 3.16 μmol/L or 10 μmol/L, was added to the MV-4-11 cell, ML-1 cell and K562 cell, respectively. Each 20 μL of DMSO was added to the control well and the blank well to a final concentration of 0.1%. After adding the test compound, the cells were incubated in a 5% carbon dioxide gas incubator at 37° C. for 72 hours. After adding 20 μL of WST-1 reagent {4-[3-(4-iodophenyl)-2-(4-nitrophenyl)-2H-5-tetrazolio]-1,3-benzene disulfonate sodium salt) (Roche Diagnostics K.K., Catalogue No. 1644807) diluted to 50% with RPMI medium, the cells were further incubated at 37° C. for 2 hours. Then, the absorbances at 450 nm (reference wavelength: 690 nm) were determined with a microplate spectrophotometer SPECTRA max 340PC (Molecular Devices Corporation). The relative growth (%) of a well to which the test compound had been added was determined while setting the absorbance of a well to which not the test compound but DMSO alone had been added (control) at 100% and that of a well containing RPMI medium alone at 0%. The cytostatic rate (%) of the test compound was determined by subtracting the calculated relative growth from 100.

[3] = tested on: K562; assay: Cytostatic activity on human chronic myeloid leukemia cell line K562 (WST-1); type: cell-based; settings: 10 μmol/L, 72 hours, read-out: K562 (%) cytostatic rate
Experimental: as §1, §2

[4] = tested on: ML-1; assay: Cytostatic activity on human acute myeloid leukemia cell line ML-1 (WST-1); type: cell-based; settings: ML1, 3.16 μmol/L, 72 hours, read-out: ML-1 (%) cytostatic rate
Experimental: as §1, §2

Row | inhibition at 10 µM [1] [%] | SMILES | other results
1 | 97.8 | CN(C)CCOc1ccc(/C=C/c2n[nH]c3ccccc23)cc1 [Compound 2, (E)-3-(2-[4-(2-dimethylaminoethoxy)phenyl]vinyl}-1H-indazole hydrochloride] | 
2 |  | CCOC(=O)COc1ccc(/C=C/c2n[nH]c3ccccc23)cc1 [Compound 3, ethyl (E)-4-[2-(1H-indazol-3-yl)vinyl]phenoxyacetate] | inhibition at 3.16 µM [2]: 37%; inhibition at 10 µM [3]: 14%
3 |  | OCCOc1ccc(/C=C/c2n[nH]c3ccccc23)cc1 [Compound 4, (E)-3-{2-[4-(2-hydroxyethoxy)phenyl]vinyl}-1H-indazole] | inhibition at 3.16 µM [4]: 27%; inhibition at 3.16 µM [2]: 91%; inhibition at 10 µM [3]: 72%
4 |  | CCN(CC)CCOc1ccc(/C=C/c2n[nH]c3ccccc23)cc1 [Compound 6, (E)-3-{2-[4-(2-diethylaminoethoxy)phenyl]vinyl}-1H-indazole hydrochloride] | inhibition at 3.16 µM [4]: 89%; inhibition at 3.16 µM [2]: 97%; inhibition at 10 µM [3]: 98%
5 |  | CC(C)N(CCOc1ccc(/C=C/c2n[nH]c3ccccc23)cc1)C(C)C [Compound 7, (E)-3-{2-[4-(2-diisopropylaminoethoxy)phenyl]vinyl}-1H-indazole hydrochloride] | inhibition at 3.16 µM [4]: 89%; inhibition at 3.16 µM [2]: 97%; inhibition at 10 µM [3]: 93%
6 |  | C(=C\c1n[nH]c2ccccc12)/c1ccc(OCCN2CCCCC2)cc1 [Compound 8, (E)-3-{2-[4-(2-piperidinoethoxy)phenyl]vinyl}-1H-indazole hydrochloride] | inhibition at 3.16 µM [4]: 90%; inhibition at 3.16 µM [2]: 97%; inhibition at 10 µM [3]: 94%
7 |  | C(=C\c1n[nH]c2ccccc12)/c1ccc(OCCCN2CCCCC2)cc1 [Compound 9, (E)-3-{2-[4-(3-piperidinopropoxy)phenyl]vinyl}-1H-indazole hydrochloride] | inhibition at 3.16 µM [4]: 92%; inhibition at 3.16 µM [2]: 97%; inhibition at 10 µM [3]: 97%
8 | 99.2 | Nc1cc(/C=C/c2n[nH]c3ccccc23)ccc1OCCN1CCOCC1 [Compound 38, (E)-3-{2-[3-amino-4-(2-morpholinoethoxy)phenyl]vinyl}-1H-indazole] | 
9 | 90.2 | CS(=O)(=O)Nc1cc(/C=C/c2n[nH]c3ccccc23)ccc1OCCN1CCOCC1 [Compound 60, (E)-N-{5-[2-(1H-Indazol-3-yl)vinyl]-2-(2-morpholinoethoxy)phenyl}methanesulfonamide] | 
10 | 91 | O=C(NCCN1CCOCC1)c1ccc(/C=C/c2n[nH]c3ccccc23)cc1 [Compound 61, (E)-N-(2-morpholinoethyl)-4-[2-(1H-indazol-3-yl)vinyl]benzamide] | 
11 | 97.4 | CC(C)(C)OC(=O)N1CCN(C(=O)c2ccc(/C=C/c3n[nH]c4ccccc34)cc2)CC1 [Compound 63, (E)-4-{4-[2-(1H-indazol-3-yl)vinyl]benzoyl)piperazine-1-carboxylic acid 1,1-dimethylethylester] | 
12 | 94.4 | O=CN1CCN(C(=O)c2ccc(/C=C/c3n[nH]c4ccccc34)cc2)CC1 [Compound 65, (E)-4-{4-[2-(1H-indazol-3-yl)vinyl]benzoyl}piperazine-1-carbaldehyde] | 
13 | 95.7 | CCOC(=O)N1CCN(C(=O)c2ccc(/C=C/c3n[nH]c4ccccc34)cc2)CC1 [Compound 66, (E)-1-{4-[2-(1H-indazol-3-yl)vinyl]benzoyl}-4-ethoxycarbonylpiperazine] | 
14 | 96.4 | O=C(c1ccncc1)N1CCN(C(=O)c2ccc(/C=C/c3n[nH]c4ccccc34)cc2)CC1 [Compound 67, (E)-1-{4-[2-(1H-indazol-3-yl)vinyl]benzoyl}-4-(isonicotinoyl)piperazine] | 
15 | 94.4 | CCN(CC)CCNC(=O)c1ccc(/C=C/c2n[nH]c3ccccc23)cc1 [Compound 68, (E)-N-[2-(diethylamino)ethyl]-4-[2-(1H-indazol-3-yl)vinyl]benzamide] | 
16 | 95.8 | COCC(=O)N1CCN(C(=O)c2ccc(/C=C/c3n[nH]c4ccccc34)cc2)CC1 [Compound 69, (E)-4-methoxyacetyl-1-{4-[2-(1H-indazol-3-yl)vinyl]benzoyl}piperazine] | 
17 |  | O=C1CN(C(=O)c2ccc(/C=C/c3n[nH]c4ccccc34)cc2)CCN1 [Compound 70, (E)-4-{4-[2-(1H-indazol-3-yl)vinyl]benzoyl}piperadin-2-one] | Inhibitory activity on Flt-3 (%) [1]: 93.7%
18 | 95.2 | NC1CCN(C(=O)c2ccc(/C=C/c3n[nH]c4ccccc34)cc2)C1 (centres unmarked) [Compound 71, (E)-1-{4-[2-(1H-indazol-3-yl)vinyl]benzoyl}-3-aminopyrrolidine dihydrochloride] | 
19 | 95 | O=C(c1ccc(/C=C/c2n[nH]c3ccccc23)cc1)N1CCN(C(=O)[C@H]2CCNC2)CC1 [Compound 72, (S)-(E)-1-{4-[2-(1H-indazol-3-yl)vinyl]benzoyl}-4-(pyrrolidin-3-ylcarbonyl)piperazine dihydrochloride] | 
20 |  | CC(C)(N)C(=O)N1CCN(C(=O)c2ccc(/C=C/c3n[nH]c4ccccc34)cc2)CC1.Cl.Cl [Compound 74, (E)-4-(2-amino-2-methylpropionyl)-1-{4-[2-(1H-indazol-3-yl)vinyl]benzoyl}piperazine dihydrochrolide] | Inhibitory activity on Flt-3 (%) [1]: 97.0%
21 | 95.1 | CC(=O)N(C)CC(=O)N1CCN(C(=O)c2ccc(/C=C/c3n[nH]c4ccccc34)cc2)CC1 [Compound 75, (E)-4-(N-acetyl-N-methylaminoacetyl)-1-(4-[2-(1H-indazol-3-yl)vinyl]benzoyl}piperazine] | 
22 | 93.9 | O=C(c1ccc(/C=C/c2n[nH]c3ccccc23)cc1)N1CCN(C(=O)[C@@H]2CCCN2)CC1 [Compound 76, (S)-(E)-4-[(pyrrolidin-2-yl)carbonyl]-1-{4-[2-(1H-indazol-3-yl)vinyl]benzoyl}piperazine] | 
23 | 96.3 | CN1CCC(C(=O)N2CCN(C(=O)c3ccc(/C=C/c4n[nH]c5ccccc45)cc3)CC2)CC1 [Compound 77, (E)-4-[(1-methylpiperidin-4-yl)carbonyl]-1-(4-[2-(1H-indazol-3-yl)vinyl]benzoyl)piperazine] | 
24 | 95.7 | NC1CCN(C(=O)c2ccc(/C=C/c3n[nH]c4ccccc34)cc2)CC1 [Compound 78, (E)-1-{4-[2-(1H-indazol-3-yl)vinyl]benzoyl}-4-aminopiperidine] | 

Row | SMILES | inhibition at 10 µM [1] [%] | other results
25 | COc1cc(/C=C/c2n[nH]c3ccccc23)ccc1OCCN1CCOCC1 [Compound 30, (E)-3-{2-[3-methoxy-4-(2-morpholinoethoxy)phenyl]vinyl}-1H-indazole hydrochloride] | 98.1 | 
26 | CCN(CC)C(=O)c1ccc(/C=C/c2n[nH]c3ccccc23)cc1 [Compound 62, (E)-N,N-Diethyl-4-[2-(1H-indazol-3-yl)vinyl]benzamide hydrochloride] | 93.7 | 
27 | O=C(c1ccc(/C=C/c2n[nH]c3ccccc23)cc1)N1CCNCC1 [Compound 64, (E)-1-{4-[2-(1H-indazol-3-yl)vinyl]benzoyl}piperazine] | 94.2 | 
